Assay results as given in US12503484B2, “Androstane derivatives with activity as pure or predominantly pure stimulators of SERCA2a for the treatment of heart failure” (Seismic Pharmaceuticals, priority 2019, dated 2025).
Where a name gives a salt, the structure may show the parent alone.

Tests used:
Monoamine Oxidase MAO-A = Monoamine Oxidase MAO-A (Homo sapiens (Human), UniProt P21397); assay: Receptor binding assay panel: Monoamine Oxidase MAO-A; format: biochemical
Progesterone PR-B = Progesterone PR-B (Homo sapiens (Human), UniProt P06401); assay: Receptor binding assay panel: Progesterone PR-B
Muscarinic M2 = Muscarinic M2 (Homo sapiens (Human), UniProt P08172); assay: Receptor binding assay panel: Muscarinic M2
Description: (§1) Radioligand binding to a panel of receptors was carried out by Eurofins on crude membrane preparations according to published procedures and by using appropriate reference standard (Eurofin, Taiwan, compound code CVie216-3 (1226840), study #TW04-0004235, quote #TW04-0004235-Q04, for Cvie Therapeutics Limited, Taiwan). […] was tested at the concentration of 10 μM.

Ryanodine RyR3 = Ryanodine RyR3 (Rattus norvegicus, UniProt A0ABK0LPH6); assay: Receptor binding assay panel: Ryanodine RyR3
Monoamine Oxidase MAO-B = Monoamine Oxidase MAO-B (Homo sapiens (Human), UniProt P27338); assay: Receptor binding assay panel: Monoamine Oxidase MAO-B; format: biochemical
Chain of Monoamine Oxidase MAO-B (P27338 whole entry): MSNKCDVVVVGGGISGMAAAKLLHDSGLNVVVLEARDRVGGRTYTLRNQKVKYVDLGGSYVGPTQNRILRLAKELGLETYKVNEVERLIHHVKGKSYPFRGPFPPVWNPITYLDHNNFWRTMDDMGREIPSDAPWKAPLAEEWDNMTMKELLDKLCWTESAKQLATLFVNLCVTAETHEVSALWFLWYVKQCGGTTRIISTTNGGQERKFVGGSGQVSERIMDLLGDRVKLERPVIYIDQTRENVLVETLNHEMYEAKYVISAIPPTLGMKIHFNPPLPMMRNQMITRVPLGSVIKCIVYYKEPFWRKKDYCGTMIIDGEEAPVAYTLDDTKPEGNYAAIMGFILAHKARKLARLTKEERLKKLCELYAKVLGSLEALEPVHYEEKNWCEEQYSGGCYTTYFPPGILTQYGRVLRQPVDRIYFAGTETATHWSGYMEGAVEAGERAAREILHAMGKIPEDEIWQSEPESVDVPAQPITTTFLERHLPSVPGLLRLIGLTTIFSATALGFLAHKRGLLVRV

[1] = target: Protein Tyrosine Kinase, Src (Homo sapiens (Human), UniProt P12931); assay: Receptor binding assay panel: Protein Tyrosine Kinase, Src; format: biochemical
Sodium Channel, Site 2 = assay: Receptor binding assay panel: Sodium Channel, Site 2; design: species or system rat; conditions: 10 μM
Glucocorticoid = Glucocorticoid (Homo sapiens (Human), UniProt P04150); assay: Receptor binding assay panel: Glucocorticoid
Chain of Glucocorticoid (P04150 whole entry): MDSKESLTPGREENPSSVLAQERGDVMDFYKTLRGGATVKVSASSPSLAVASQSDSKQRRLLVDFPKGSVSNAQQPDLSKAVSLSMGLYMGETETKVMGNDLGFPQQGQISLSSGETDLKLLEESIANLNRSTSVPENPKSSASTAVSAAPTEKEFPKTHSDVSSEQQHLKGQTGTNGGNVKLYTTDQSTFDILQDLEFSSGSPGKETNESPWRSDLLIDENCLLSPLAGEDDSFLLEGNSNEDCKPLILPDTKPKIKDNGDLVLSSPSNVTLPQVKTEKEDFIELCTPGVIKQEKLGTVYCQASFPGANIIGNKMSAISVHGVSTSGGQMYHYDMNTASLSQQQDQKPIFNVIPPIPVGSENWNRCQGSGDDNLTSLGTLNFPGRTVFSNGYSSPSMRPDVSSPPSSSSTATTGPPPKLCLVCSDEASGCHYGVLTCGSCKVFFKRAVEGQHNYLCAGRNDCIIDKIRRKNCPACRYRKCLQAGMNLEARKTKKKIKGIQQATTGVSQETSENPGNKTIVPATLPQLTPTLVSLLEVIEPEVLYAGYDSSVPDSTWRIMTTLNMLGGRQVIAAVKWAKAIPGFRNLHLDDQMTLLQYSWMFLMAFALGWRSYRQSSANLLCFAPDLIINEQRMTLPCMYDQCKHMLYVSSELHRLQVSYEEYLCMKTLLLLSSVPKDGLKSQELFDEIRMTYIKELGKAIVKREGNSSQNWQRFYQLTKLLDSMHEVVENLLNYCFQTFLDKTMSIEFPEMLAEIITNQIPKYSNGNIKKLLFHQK

Imidazoline I2, Central = assay: Receptor binding assay panel: Imidazoline I2, Central; design: species or system rat; conditions: 10 μM
Description: as §1

[2] = target: Protein Tyrosine Kinase, ABL1 (Homo sapiens (Human), UniProt P00519); assay: Receptor binding assay panel: Protein Tyrosine Kinase, ABL1; format: biochemical
Angiotensin AT1 = Angiotensin AT1 (Homo sapiens (Human), UniProt P30556); assay: Receptor binding assay panel: Angiotensin AT1
Chain of Angiotensin AT1 (P30556 whole entry): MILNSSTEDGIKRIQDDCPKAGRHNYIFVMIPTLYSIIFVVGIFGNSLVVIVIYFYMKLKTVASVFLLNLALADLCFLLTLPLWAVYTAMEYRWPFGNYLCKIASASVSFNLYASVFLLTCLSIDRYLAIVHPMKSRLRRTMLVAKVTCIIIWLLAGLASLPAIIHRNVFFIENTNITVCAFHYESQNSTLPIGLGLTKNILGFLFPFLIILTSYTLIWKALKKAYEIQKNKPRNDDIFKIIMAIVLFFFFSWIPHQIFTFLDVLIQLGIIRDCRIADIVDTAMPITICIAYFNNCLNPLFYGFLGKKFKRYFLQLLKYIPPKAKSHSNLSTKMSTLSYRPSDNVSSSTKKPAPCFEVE

Adrenergic α1B = Adrenergic α1B (Rattus norvegicus (Rat), UniProt P15823); assay: Receptor binding assay panel: Adrenergic α1B
Chain of Adrenergic α1B (P15823 whole entry): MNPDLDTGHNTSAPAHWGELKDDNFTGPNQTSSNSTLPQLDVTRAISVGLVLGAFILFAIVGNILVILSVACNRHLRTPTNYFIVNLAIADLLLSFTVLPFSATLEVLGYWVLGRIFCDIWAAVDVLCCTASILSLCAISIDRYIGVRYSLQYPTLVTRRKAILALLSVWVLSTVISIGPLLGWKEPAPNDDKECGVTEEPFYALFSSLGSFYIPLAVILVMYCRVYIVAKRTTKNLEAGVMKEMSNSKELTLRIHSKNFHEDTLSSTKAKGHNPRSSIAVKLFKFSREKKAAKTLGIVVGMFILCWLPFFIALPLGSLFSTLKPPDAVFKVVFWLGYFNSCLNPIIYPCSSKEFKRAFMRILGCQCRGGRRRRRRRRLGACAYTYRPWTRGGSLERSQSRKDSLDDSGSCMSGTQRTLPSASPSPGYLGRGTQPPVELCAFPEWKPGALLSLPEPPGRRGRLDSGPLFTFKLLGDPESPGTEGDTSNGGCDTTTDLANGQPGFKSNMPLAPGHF

[3] = target: Peptidase, Angiotensin Converting Enzyme (Oryctolagus cuniculus (Rabbit), UniProt P12822); assay: Receptor binding assay panel: Peptidase, Angiotensin Converting Enzyme; format: biochemical
Estrogen ERα = Estrogen ERα (Homo sapiens (Human), UniProt P03372); assay: Receptor binding assay panel: Estrogen ERα
Estrogen ERβ = Estrogen ERβ (Homo sapiens (Human), UniProt Q92731); assay: Receptor binding assay panel: Estrogen ERβ
[4] = test system: Calcium Channel L-type, Dihydropyridine; assay: Receptor binding assay panel: Calcium Channel L-type, Dihydropyridine; design: species or system rat; conditions: 10 μM
[5] = test system: GABAA, Flunitrazepam, Central; assay: Receptor binding assay panel: GABAA, Flunitrazepam, Central; design: species or system rat; conditions: 10 μM
Description: as §1

Histamine H1 = Histamine H1 (Homo sapiens (Human), UniProt P35367); assay: Receptor binding assay panel: Histamine H1
Adrenergic β2 = Adrenergic β2 (Homo sapiens (Human), UniProt P07550); assay: Receptor binding assay panel: Adrenergic β2
Opiate μ (OP3, MOP) = Opiate μ (OP3, MOP) (Homo sapiens (Human), UniProt P35372); assay: Receptor binding assay panel: Opiate μ (OP3, MOP)
Description: as §1

[6] = test system: Glutamate, NMDA, Phencyclidine; assay: Receptor binding assay panel: Glutamate, NMDA, Phencyclidine; design: species or system rat; conditions: 10 μM
Description: as §1

GABAA, Muscimol, Central = assay: Receptor binding assay panel: GABAA, Muscimol, Central; design: species or system rat; conditions: 10 μM
Description: as §1

Sigma σ2 = Sigma σ2 (Homo sapiens (Human), UniProt Q5BJF2); assay: Receptor binding assay panel: Sigma σ2
CYP450, 19 (CYP19) = CYP450, 19 (CYP19) (Homo sapiens (Human), UniProt P11511); assay: Receptor binding assay panel: CYP450, 19
Phorbol Ester = assay: Receptor binding assay panel: Phorbol Ester; design: species or system mouse; conditions: 10 μM
Adrenergic α1A = Adrenergic α1A (Rattus norvegicus (Rat), UniProt P43140); assay: Receptor binding assay panel: Adrenergic α1A
Angiotensin AT2 = Angiotensin AT2 (Homo sapiens (Human), UniProt P50052); assay: Receptor binding assay panel: Angiotensin AT2
Chain of Angiotensin AT2 (P50052 whole entry): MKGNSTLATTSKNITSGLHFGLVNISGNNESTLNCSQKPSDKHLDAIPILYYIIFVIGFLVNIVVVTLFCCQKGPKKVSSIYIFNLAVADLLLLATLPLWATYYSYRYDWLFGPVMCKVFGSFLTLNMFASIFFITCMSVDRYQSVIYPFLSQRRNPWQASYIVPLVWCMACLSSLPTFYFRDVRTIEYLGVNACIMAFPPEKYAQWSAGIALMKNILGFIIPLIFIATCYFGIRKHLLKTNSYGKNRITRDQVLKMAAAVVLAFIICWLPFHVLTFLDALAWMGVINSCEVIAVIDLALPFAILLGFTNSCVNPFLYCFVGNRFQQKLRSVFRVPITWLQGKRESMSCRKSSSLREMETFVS

Adenosine A1 = Adenosine A1 (Homo sapiens (Human), UniProt P30542); assay: Receptor binding assay panel: Adenosine A1
Chain of Adenosine A1 (P30542 whole entry): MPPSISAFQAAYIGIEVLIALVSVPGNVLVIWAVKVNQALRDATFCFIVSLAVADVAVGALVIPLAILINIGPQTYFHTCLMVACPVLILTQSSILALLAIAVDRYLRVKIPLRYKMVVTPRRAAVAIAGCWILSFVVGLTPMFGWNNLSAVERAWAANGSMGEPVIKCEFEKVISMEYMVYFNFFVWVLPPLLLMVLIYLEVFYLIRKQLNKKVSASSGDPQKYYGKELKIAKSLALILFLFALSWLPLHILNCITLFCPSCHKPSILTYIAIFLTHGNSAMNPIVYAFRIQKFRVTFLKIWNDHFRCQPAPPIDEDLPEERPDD

Phosphodiesterase PDE3 = assay: Receptor binding assay panel: Phosphodiesterase PDE3; format: biochemical, Human; conditions: 10 μM
Dopamine D1 = Dopamine D1 (Homo sapiens (Human), UniProt P21728); assay: Receptor binding assay panel: Dopamine D1
Chain of Dopamine D1 (P21728 whole entry): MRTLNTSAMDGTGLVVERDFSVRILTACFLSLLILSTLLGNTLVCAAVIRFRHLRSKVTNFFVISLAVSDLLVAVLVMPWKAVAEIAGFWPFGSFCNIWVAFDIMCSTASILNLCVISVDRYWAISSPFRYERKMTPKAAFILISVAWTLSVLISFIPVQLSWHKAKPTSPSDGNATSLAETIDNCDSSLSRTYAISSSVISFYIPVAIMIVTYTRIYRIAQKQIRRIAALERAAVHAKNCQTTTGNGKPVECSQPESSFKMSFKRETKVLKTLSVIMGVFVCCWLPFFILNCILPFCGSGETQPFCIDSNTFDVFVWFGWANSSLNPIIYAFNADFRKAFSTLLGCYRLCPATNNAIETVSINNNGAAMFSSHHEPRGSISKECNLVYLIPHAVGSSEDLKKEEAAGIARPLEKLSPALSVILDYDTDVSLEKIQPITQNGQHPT

Adrenergic α2A = Adrenergic α2A (Homo sapiens (Human), UniProt P08913); assay: Receptor binding assay panel: Adrenergic α2A
Chain of Adrenergic α2A (P08913 whole entry): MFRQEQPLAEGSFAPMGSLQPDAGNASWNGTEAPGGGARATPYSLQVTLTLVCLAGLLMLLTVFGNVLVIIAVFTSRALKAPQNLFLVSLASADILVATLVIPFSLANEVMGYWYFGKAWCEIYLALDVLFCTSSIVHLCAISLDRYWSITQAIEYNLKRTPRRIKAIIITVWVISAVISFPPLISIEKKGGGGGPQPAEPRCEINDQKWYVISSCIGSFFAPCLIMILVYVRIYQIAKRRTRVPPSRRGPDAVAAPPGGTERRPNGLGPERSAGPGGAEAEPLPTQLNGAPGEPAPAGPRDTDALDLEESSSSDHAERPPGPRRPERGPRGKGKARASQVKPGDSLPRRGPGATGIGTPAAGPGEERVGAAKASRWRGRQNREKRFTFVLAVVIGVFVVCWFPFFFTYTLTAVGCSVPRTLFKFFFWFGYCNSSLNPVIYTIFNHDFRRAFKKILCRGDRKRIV
Description: as §1

Aldosterone = Aldosterone (Rattus norvegicus (Rat), UniProt P22199); assay: Receptor binding assay panel: Aldosterone
Chain of Aldosterone (P22199 whole entry): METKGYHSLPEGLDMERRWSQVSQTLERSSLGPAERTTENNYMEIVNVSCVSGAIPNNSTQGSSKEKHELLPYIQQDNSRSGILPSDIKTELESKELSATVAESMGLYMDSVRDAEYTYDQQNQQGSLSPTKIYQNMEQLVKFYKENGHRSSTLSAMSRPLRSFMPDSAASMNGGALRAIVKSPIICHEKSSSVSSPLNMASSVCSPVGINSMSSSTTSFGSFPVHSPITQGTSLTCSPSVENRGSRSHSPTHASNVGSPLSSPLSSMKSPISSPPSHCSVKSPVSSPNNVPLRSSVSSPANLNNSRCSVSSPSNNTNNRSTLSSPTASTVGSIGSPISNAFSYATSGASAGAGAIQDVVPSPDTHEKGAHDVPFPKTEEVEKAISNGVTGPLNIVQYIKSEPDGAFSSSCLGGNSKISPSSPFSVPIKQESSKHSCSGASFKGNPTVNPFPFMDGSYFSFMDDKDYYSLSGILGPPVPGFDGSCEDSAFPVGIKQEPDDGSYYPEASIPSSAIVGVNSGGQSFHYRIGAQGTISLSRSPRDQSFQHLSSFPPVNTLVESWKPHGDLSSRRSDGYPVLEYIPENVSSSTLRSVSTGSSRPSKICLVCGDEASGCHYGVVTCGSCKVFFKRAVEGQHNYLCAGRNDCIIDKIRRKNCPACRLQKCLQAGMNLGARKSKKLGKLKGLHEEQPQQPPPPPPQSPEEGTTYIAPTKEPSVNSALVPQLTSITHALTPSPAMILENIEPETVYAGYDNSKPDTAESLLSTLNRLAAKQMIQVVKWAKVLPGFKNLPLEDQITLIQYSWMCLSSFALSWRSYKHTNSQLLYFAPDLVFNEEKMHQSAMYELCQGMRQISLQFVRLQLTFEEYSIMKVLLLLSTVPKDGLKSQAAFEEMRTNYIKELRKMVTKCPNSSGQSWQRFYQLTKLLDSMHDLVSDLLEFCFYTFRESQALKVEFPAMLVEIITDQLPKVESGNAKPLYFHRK

in vivo = assay: in vivo; design: dose or concentration left out as unconfirmed; conditions: rat
Sigma σ1 = Sigma σ1 (Homo sapiens (Human), UniProt Q99720); assay: Receptor binding assay panel: Sigma σ1
Chain of Sigma σ1 (Q99720 whole entry): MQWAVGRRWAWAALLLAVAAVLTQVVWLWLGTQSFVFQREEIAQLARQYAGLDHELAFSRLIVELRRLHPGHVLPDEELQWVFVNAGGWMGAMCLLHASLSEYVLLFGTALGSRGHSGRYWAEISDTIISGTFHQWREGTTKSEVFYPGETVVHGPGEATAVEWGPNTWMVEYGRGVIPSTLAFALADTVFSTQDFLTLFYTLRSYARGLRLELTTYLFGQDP

Compound: C[C@]12CC[C@H](CC(=O)O)CC1C(O)CC1C2CC[C@]2(C)C(=O)CCC12 (stereo in doubt) [CVie216-salt, 2-(6beta-hydroxy-17-oxoandrostane-3-yl) acetic acid]
- inhibition at 10 µM (Monoamine Oxidase MAO-A): 1%
- inhibition at 10 µM (Progesterone PR-B): 1%
- inhibition at 10 µM (Muscarinic M2): -20%
- inhibition at 10 µM (Ryanodine RyR3): -10%
- inhibition at 10 µM (Monoamine Oxidase MAO-B): -2%
- inhibition at 10 µM [1]: 2%
- % inhib (Sodium Channel, Site 2): −5%
- inhibition at 10 µM (Glucocorticoid): -9%
- % inhib (Imidazoline I2, Central): 1%
- inhibition at 10 µM [2]: 13%
- inhibition at 10 µM (Angiotensin AT1): 1%
- inhibition at 10 µM (Adrenergic α1B): 6%
- inhibition at 10 µM [3]: 7%
- inhibition at 10 µM (Estrogen ERα): -3%
- inhibition at 10 µM (Estrogen ERβ): -6%
- % inhib [4]: −20%
- % inhib [5]: 1%
- inhibition at 10 µM (Histamine H1): 12%
- inhibition at 10 µM (Adrenergic β2): -6%
- inhibition at 10 µM (Opiate μ (OP3, MOP)): 11%
- % inhib [6]: −7%
- % inhib (GABAA, Muscimol, Central): 2%
- inhibition at 10 µM (Sigma σ2): 4%
- inhibition at 10 µM (CYP450, 19 (CYP19)): 0%
- % inhib (Phorbol Ester): −7%
- inhibition at 10 µM (Adrenergic α1A): 5%
- inhibition at 10 µM (Angiotensin AT2): -6%
- inhibition at 10 µM (Adenosine A1): -1%
- % inhib (Phosphodiesterase PDE3): −25%
- inhibition at 10 µM (Dopamine D1): 13%
- inhibition at 10 µM (Adrenergic α2A): -2%
- inhibition at 10 µM (Aldosterone): -3%
- bioavailability (in vivo): 16.9%
- inhibition at 10 µM (Sigma σ1): 2%
